# Reference: article doi:10.1101/2024.12.09.627564, “Cannabinoid inhibition of mechanosensitive K^+ channels” (bioRxiv, 2024)
# How the values were obtained:
# Kv7.2/7.3 = tested on: Kv7.2/7.3; set-up: method as in PMID 35179483, PMID 37857637; settings: activation; cited from earlier work
# Danio rerio TREK-1 = target: T1, Danio rerio TREK-1 (Danio rerio, UniProt F1QAI2); assay: Patch recording of Danio rerio TREK-1 from cultured cells; assay type: biochemical; settings: IC50, Danio rerio TREK-1, patches
# T1 sequence (F1QAI2 1-426): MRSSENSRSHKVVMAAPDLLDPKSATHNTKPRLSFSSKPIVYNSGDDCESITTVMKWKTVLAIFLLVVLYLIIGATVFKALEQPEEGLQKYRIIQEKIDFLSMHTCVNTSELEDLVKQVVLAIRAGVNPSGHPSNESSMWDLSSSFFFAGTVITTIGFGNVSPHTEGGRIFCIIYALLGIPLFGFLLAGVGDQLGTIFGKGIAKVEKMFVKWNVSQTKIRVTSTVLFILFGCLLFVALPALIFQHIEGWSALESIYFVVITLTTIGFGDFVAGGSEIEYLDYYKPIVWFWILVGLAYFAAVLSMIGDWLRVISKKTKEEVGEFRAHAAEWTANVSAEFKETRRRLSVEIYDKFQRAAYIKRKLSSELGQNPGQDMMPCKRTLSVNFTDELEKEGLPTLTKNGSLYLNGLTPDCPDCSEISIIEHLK
# Method: For patch clamp recording from cultured cells, drTREK-1 or hsTRAAK genes were cloned into a modified pCEH vector to generate C-terminally EGFP-tagged constructs. HEK293T were cultured in DMEM (Gibco, Thermo Fisher Scientific) with 10% FBS and 100 U ml−1 penicillin and 100 μg ml−1 streptomycin. Trypsinized cells were deposited on 12-mm glass coverslips in a six-well dish one to two days before transfection. For transfection, drTREK-1 or hsTRAAK plasmids were mixed with FuGENE 6 in OptiMEM at a 1:3 ratio with 1 μg DNA per well per construct and applied to cells in growth medium with antibiotics. Patching was conducted from 24 to 60 h post-transfection. Coverslips were placed in a perfusion chamber at room temperature in isotonic bath solution: 135 mM NaCl, 15 mM KCl, 1 mM CaCl2, 1 mM MgCl2, 10 mM HEPES, adjusted to a final pH of 7.5 with NaOH. Cells were chosen by a combination of the presence GFP fluorescence and cell morphology consistent with healthy interphase cells. […]
# Patches were evaluated with voltage-step protocols to confirm TRAAK expression and minimal non-specific leak based on reversal potential. Currents were recorded using an Axopatch 200B amplifier (Molecular Devices) at a bandwidth of 1 kHz and digitized with an Digidata 1550B (Molecular Devices) at 100–500 kHz using pClamp10.7 software. […] Data were analyzed using Clampfit 10.7, Excel, and Graphpad Prism software. […]
smiles,measurement,setting,value
"C=C(C)[C@@H]1CCC(C)=C[C@H]1c1c(O)cc(CCCCC)cc1O [CBD, Cannabidiol]",EC50,Kv7.2/7.3,0.2 µM
same,IC50,Danio rerio TREK-1,11.1 µM
